{
  "source": "patent US12263248B2",
  "about": "“Compounds and compositions for intracellular delivery of therapeutic agents” (ModernaTX, Inc., priority 2018, dated 2025)",
  "key": {"[1]": {"conditions": "Sprague Dawley, rat, in vivo, iv, 5 mg/kg, 20 min", "quoted_text": "Sprague Dawley rats were administered with nanoparticles of the disclosure via i.v. bolus at 5 mpk. The nanoparticle contained two mRNA encoding a broadly neutralizing influenza antibody in a 2:1 ratio."}, "[2]": {"experiment": "One-month toxicological evaluation with weekly dosing in rat", "format": "in vivo, Sprague Dawley rat", "conditions": "weekly dosing 0.05, 0.5 and 2 mg/kg, one-month study", "method": "Serum ALT and AST levels: Samples were analyzed using a Modular Analytics analyzer.\nNext, tolerability and safety of the compound 18-based LNPs in vivo was tested. A full toxicological evaluation of compound 18-based LNPs in both Sprague Dawley rat and cynomolgus monkey was performed using a standard one-month study with weekly dosing at three dose levels in each species. Rats were dosed at 0.05, 0.5, and 2 mg/kg and a non-human primates was dosed at 0.1, 0.3, and 1 mg/kg. LNP-related toxicities associated with MC3-based LNP systems are generally associated with immunological (cytokine and complement activation) and hepatic injury. […] FIGS. 32 and 33 highlight the day 30 levels of alanine transferase (ALT, FIG. 32A) and aspartate aminotransferase (AST, FIG. 32B), two indicators of liver damage."}, "human hepatocytes": {"system": "human hepatocytes", "experiment": "Metabolite profiling of Compound 18 with human hepatocytes", "format": "in vitro ADME", "design": "key to Detection in incubation: +: Detected; ND: Not detected", "conditions": "Compound 18 (10 μM), human hepatocytes", "method": "The results of metabolic profiling and characterization for compound 18 incubated with human hepatocytes or human plasma are summarized in Tables 41 and 42, respectively."}, "[3]": {"experiment": "Tolerability of Compound 18 formulation in non-human primates, single dose", "format": "in vivo", "method": "(§1) The tolerability and efficacy of nanoparticle compositions to non-human primates was also investigated using a sample formulation including Compound 18. The formulation was prepared according to the standard MC3 formulation described above and included an hEPO mRNA. Primates were administered a single dose of 0.05 (Group 1), 0.3 (Group 2), or 1.0 (Group 3) mpk via intravenous infusion for 60 minutes. Three primates were administered each dose. Expression of hEPO was measured prior to dosing and at 2, 6, 24, 48, and 96 hours post-treatment (Table 26). Table 28 includes levels of indicators of complement activation, while Table 29 includes cytokine induction data.\nIn general, lower doses were better tolerated. High doses induced body temperature elevation and hunched posture, which is similar to the behavior observed for primates administered higher doses of MC3 formulations."}, "[4]": {"experiment": "Lipid tissue accumulation in NHP after a single dose", "conditions": "12 hours post dose"}, "C5b9": {"system": "C5b9", "experiment": "Complement activation indicators in non-human primates", "format": "in vivo, Cynomolgus monkeys", "method": "as §1\nSerum C5b9 levels: C5b9 sample analysis was performed using an ELISA method. The kit used was Human C5b-9 ELISA Set and Reagent Set B from BD Bioscience. Study samples were analyzed in singlicate diluted 1/100."}, "[5]": {"experiment": "Tissue distribution and liver tissue clearance of lipid after weekly intravenous doses to CD-1 mice", "format": "in vivo", "conditions": "liver tissue, 0.25 mg/kg mRNA, weekly dosing", "from_the_text": "FIGS. 30A-30C are a series of graphs showing the pharmacokinetic and expression profile of Compound 18 after multiple doses. FIG. […]\nFIGS. 35A and 35B are a pair of graphs comparing the tissue distribution of MC3 and compound 18."}, "[6]": {"system": "ApoE-mediated LDLr dependent uptake", "experiment": "Expression in ApoE knockout mice and LDLr knockout mice", "conditions": "mouse, in vivo"}, "[7]": {"conditions": "single dose 0.05, 0.3 or 1.0 mpk, i.v. infusion 60 minutes"}},
  "data": [
    {"compound": "CCCCCCCCCOC(=O)CCCCCCCN(CCO)CCCCCCCC(=O)OC(CCCCCCCC)CCCCCCCC", "note": "[Compound 18, Heptadecan-9-yl 8-((2-hydroxyethyl)(8-(nonyloxy)-8-oxooctyl)amino)octanoate]", "values": [
      {"measurement": "Clinical Observations", "setting": "[1]", "result": "20 min- Flushed ears and paws"},
      {"measurement": "adverse findings", "setting": "[2]", "result": "no adverse findings"},
      {"measurement": "Detection in incubation", "setting": "human hepatocytes; 0 min", "result": "+"},
      {"measurement": "Detection in incubation", "setting": "human hepatocytes; 60 min", "result": "+"},
      {"measurement": "Detection in incubation", "setting": "human hepatocytes; 120 min", "result": "+"},
      {"measurement": "Detection in incubation", "setting": "human hepatocytes; 240 min", "result": "+"},
      {"measurement": "reticulocyte counts", "setting": "[3]; all groups, Day 5", "result": "marked increase"},
      {"measurement": "tolerability of the formulation", "setting": "[3]; non-human primates, single dose", "result": "tolerated similarly to the MC3 formulation"},
      {"measurement": "Complement activation and cytokine release (IL-6 and MCP-1)", "setting": "[3]; single dose 0.05, 0.3 or 1.0 mpk", "result": "dose-related and reversible"},
      {"measurement": "Alanine aminotransferase (ALT) levels", "setting": "[3]; [7]", "result": "did not increase"},
      {"measurement": "Aspartate aminotransferase (AST)", "setting": "[3]; [7]", "result": "increased in the high dose group on Day 2 and returned to baseline by Day 5"},
      {"measurement": "lipid levels in tissues", "setting": "[4]", "result": "significantly lower levels"},
      {"measurement": "C3a", "setting": "C5b9; 0.05 mpk, 2 h", "result": 19236, "unit": "ng/mL"},
      {"measurement": "C5b9", "setting": "C5b9; 0.05 mpk, 24 h", "result": 265, "unit": "ng/mL"},
      {"measurement": "C5b9", "setting": "C5b9; 0.05 mpk, Day 5", "result": 163, "unit": "ng/mL"},
      {"measurement": "C3a", "setting": "C5b9; 0.05 mpk, Predose", "result": 10600, "unit": "ng/mL"},
      {"measurement": "C3a", "setting": "C5b9; 0.3 mpk, 2 h", "result": 42897, "unit": "ng/mL"},
      {"measurement": "C5b9", "setting": "C5b9; 0.3 mpk, 24 h", "result": 614, "unit": "ng/mL"},
      {"measurement": "C5b9", "setting": "C5b9; 0.3 mpk, Day 5", "result": 405, "unit": "ng/mL"},
      {"measurement": "C3a", "setting": "C5b9; 0.3 mpk, Predose", "result": 9827, "unit": "ng/mL"},
      {"measurement": "C3a", "setting": "C5b9; 1.0 mpk, 2 h", "result": 75936, "unit": "ng/mL"},
      {"measurement": "C5b9", "setting": "C5b9; 1.0 mpk, 24 h", "result": 4798, "unit": "ng/mL"},
      {"measurement": "C5b9", "setting": "C5b9; 1.0 mpk, Day 5", "result": 534, "unit": "ng/mL"},
      {"measurement": "C3a", "setting": "C5b9; 1.0 mpk, Predose", "result": 12792, "unit": "ng/mL"},
      {"measurement": "primary metabolite", "setting": "[5]", "result": "compound 166"},
      {"measurement": "expression in ApoE knockout mice and LDLr knockout mice", "setting": "[6]", "result": "almost complete loss in expression"}
    ]}
  ]
}
